Laboratory results published in patent US11214803B2, “Modulators of YAP1 expression” (Ionis Pharmaceuticals, Inc., priority 2019, dated 2022).
Strand notation (5' to 3'): a small letter for the sugar, then the base; units joined by * are phosphorothioate-linked, units joined directly phosphodiester-linked; [ ] holds rarer units or linkages, { } end groups; capitals alone tell only the bases. e = 2'-O-(2-methoxyethyl) (MOE); k = constrained ethyl (cEt); [5mC] = 5-methylcytosine; d = 2'-deoxy (DNA)

System: Yap1 mRNA
Test: Antisense inhibition of human Yap1 in SNU-449 cells by modified oligonucleotides, single dose (Example 5, RTS36584)
Format: cell-based
Details: Table 43 experiment; SNU-449 cells, 10,000 cells per well, free uptake, 2,000 nM, approximately 48 hours; RTS36584; Yap1 mRNA normalized to RIBOGREEN, relative to untreated control cells
Summary of the method: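 SNU-449 cells were given 2,000 nM oligonucleotide by free uptake for about 48 h. Yap1 mRNA was then measured by RT-qPCR with primer probe set RTS36584, normalized to total RNA by RIBOGREEN and expressed as percent of untreated control.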

Point of comparison: “1198276 (kA*kG*dT*dA*dA*dG*dG*dT*dT*dT*d[5mC]*e[5mC]*e[5mC]*eA*kG*kA; antisense) [Compound 1198276]”, “YAP1 (% UTC)” value 52 % UTC. Against it:
- 1198275 (kT*kA*dA*dG*dG*dT*dT*dT*d[5mC]*d[5mC]*d[5mC]*eA*eG*eA*kT*kT; antisense) [Compound 1198275] — the same, 52 % UTC
- 1198277 (kA*kA*dG*dT*dA*dA*dG*dG*dT*dT*dT*e[5mC]*e[5mC]*e[5mC]*kA*kG; antisense) [Compound 1198277] — lower, 32 % UTC
- 1198278 (kT*kA*dA*dG*dT*dA*dA*dG*dG*dT*dT*eT*e[5mC]*e[5mC]*k[5mC]*kA; antisense) [Compound 1198278] — lower, 43 % UTC
- 1198279 (k[5mC]*kT*dA*dA*dG*dT*dA*dA*dG*dG*dT*eT*eT*e[5mC]*k[5mC]*k[5mC]; antisense) [Compound 1198279] — lower, 43 % UTC
- 1198280 (kA*k[5mC]*dT*dA*dA*dG*dT*dA*dA*dG*dG*eT*eT*eT*k[5mC]*k[5mC]; antisense) [Compound 1198280] — lower, 40 % UTC
- 1198281 (kG*kA*d[5mC]*dT*dA*dA*dG*dT*dA*dA*dG*eG*eT*eT*kT*k[5mC]; antisense) [Compound 1198281] — higher, 71 % UTC
- 1198282 (kA*kG*dA*d[5mC]*dT*dA*dA*dG*dT*dA*dA*eG*eG*eT*kT*kT; antisense) [Compound 1198282] — higher, 58 % UTC
- 1198283 (kT*kT*dA*dG*dA*d[5mC]*dT*dA*dA*dG*dT*eA*eA*eG*kG*kT; antisense) [Compound 1198283] — higher, 99 % UTC

Same assay, conditions: Table 48; Yap1 mRNA level relative to untreated control; modified oligonucleotides targeting SEQ ID NO.: 1 and 2

Point of comparison: “1198289 (kG*kG*kA*dA*dA*dT*dT*dG*dT*d[5mC]*dT*d[5mC]*kA*eT*kG*e[5mC]; antisense) [Compound 1198289]”, “YAP1 (% UT)” value 12 % UT. Against it:
- 1198284 (kT*kG*kT*d[5mC]*dT*d[5mC]*dA*dT*dG*d[5mC]*d[5mC]*dT*kT*eA*kT*eA; antisense) [Compound 1198284] — higher, 27 % UT
- 1198285 (kA*kT*kT*dG*dT*d[5mC]*dT*d[5mC]*dA*dT*dG*d[5mC]*k[5mC]*eT*kT*eA; antisense) [Compound 1198285] — higher, 13 % UT
- 1198286 (kA*kA*kT*dT*dG*dT*d[5mC]*dT*d[5mC]*dA*dT*dG*k[5mC]*e[5mC]*kT*eT; antisense) [Compound 1198286] — higher, 17 % UT
- 1198287 (kA*kA*kA*dT*dT*dG*dT*d[5mC]*dT*d[5mC]*dA*dT*kG*e[5mC]*k[5mC]*eT; antisense) [Compound 1198287] — higher, 13 % UT
- 1198288 (kG*kA*kA*dA*dT*dT*dG*dT*d[5mC]*dT*d[5mC]*dA*kT*eG*k[5mC]*e[5mC]; antisense) [Compound 1198288] — lower, 10 % UT
- 1198290 (kT*kG*kG*dA*dA*dA*dT*dT*dG*dT*d[5mC]*dT*k[5mC]*eA*kT*eG; antisense) [Compound 1198290] — higher, 15 % UT
- 1198291 (kA*kT*kG*dG*dA*dA*dA*dT*dT*dG*dT*d[5mC]*kT*e[5mC]*kA*eT; antisense) [Compound 1198291] — higher, 58 % UT
- 1198292 (kA*kT*kA*dT*dG*dG*dA*dA*dA*dT*dT*dG*kT*e[5mC]*kT*e[5mC]; antisense) [Compound 1198292] — higher, 58 % UT
- 1198293 (kA*kG*kT*dA*dT*dG*dT*dG*dG*d[5mC]*dA*dA*kT*eA*kA*eT; antisense) [Compound 1198293] — higher, 25 % UT
- 1198294 (kA*kG*kA*dG*dT*dA*dT*dG*dT*dG*dG*d[5mC]*kA*eA*kT*eA; antisense) [Compound 1198294] — higher, 13 % UT
- 1198295 (kT*kA*kG*dA*dG*dT*dA*dT*dG*dT*dG*dG*k[5mC]*eA*kA*eT; antisense) [Compound 1198295] — higher, 15 % UT
